Patent US20240199535A1, “DEUTERATED DHODH INHIBITORS” (priority 2021, published 2024)

Tests used:
[1] = tested on: SARS-CoV-2; experiment: Antiviral activity on SARS-CoV-2, viral replication (YFP) assay; format: cell-based; settings: Severe acute respiratory syndrome coronavirus 2, read-out: EC50 range
[2] = in vitro; settings: human, microsomes
[3] = in vivo; settings: CC7BL/6J, mouse, po, 5 mg/kg
Protocol: The pharmacokinetics of the compounds of the present invention was evaluated in 3 male and 3 female mice (CC7BL/6J, 8 week old) after oral cassette dosing. Dose was 5 mg/kg, application volume was 5 mL/kg and vehicle was 5% Solutol, 95% NaCl solution (at 0.9% saline concentration). At each designated time point (0, 0.25, 0.5, 1, 2, 4, 8 h after dosing), 20 μL whole blood were collected from the tail vein into Li-heparin tubes, frozen on dry ice within 1-2 minutes of sampling and stored at −20° C. until processed for LC-MS analysis.

[4] = in vitro; settings: male, rat, microsomes
[5] = in vivo; settings: Han Wistar, rat
Protocol: Rats are provided with a catheter in the jugular vein (2-3 days prior to blood sampling). At each designated time point (0, 1, 2, 4, 8 and 24 h after dosing), 100 μL blood were collected into Li-heparin tubes, stored on ice until centrifugation (10 minutes at 3000 g, 4° C.) and plasma was prepared within 45 min after collection, frozen at −20° C. and stored at this temperature until processed for LC-MS analysis.

[6] = tested on: SARS-CoV-2 d6-YFP; experiment: Combinatorial drug assessment with EIDD-1931, viral replication inhibition assay; format: cell-based

## [2H]C([2H])([2H])Oc1cccc(-c2c(F)c(F)c(NC(=O)C3=C(C(=O)O)CCC3)c(F)c2F)c1 [1/2]
[1]
  EC50: < 10 µM

## [2H]C([2H])([2H])C([2H])([2H])Oc1cccc(-c2cc(F)c(NC(=O)C3=C(C(=O)O)CCC3)c(F)c2)c1 [1/3]
[1]
  EC50: < 10 µM

## [2H]C([2H])([2H])Oc1ccccc1-c1cc(F)c(NC(=O)C2=C(C(=O)O)CCC2)c(F)c1 [1/4]
[1]
  EC50: < 10 µM

## [2H]c1c([2H])c(F)c([2H])c(-c2cc(F)c(NC(=O)C3=C(C(=O)O)CCC3)c(F)c2)c1[2H] [1/7]
[1]
  EC50: < 10 µM

## [2H]C([2H])([2H])Oc1nc(-c2cc(F)c(NC(=O)C3=C(C(=O)O)CCC3)c(F)c2)cs1 [1/8]
[1]
  EC50: 25 to 50 µM

## [2H]C([2H])([2H])Oc1cc(-c2cc(F)c(NC(=O)C3=C(C(=O)O)CCC3)c(F)c2)ccn1 [1/9]
[1]
  EC50: 25 to 50 µM

## [2H]C([2H])([2H])Oc1cccc(-c2cc(F)c(NC(=O)C3=C(C(=O)O)CCC3)c(F)c2)n1 [1/10]
[1]
  EC50: 10 to 25 µM

## [2H]C([2H])([2H])Oc1cccc(-c2ccc(NC(=O)C3=C(C(=O)O)CCC3)c3cnccc23)c1 [12/3]
[1]
  EC50: 25 to 50 µM

## [2H]C([2H])([2H])Oc1cccc(-c2ccc(NC(=O)C3=C(C(=O)O)CCC3)c3ccccc23)c1 [12/4]
[1]
  EC50: 10 to 25 µM

## [2H]C([2H])([2H])Oc1cccc(-c2ccc(NC(=O)C3=C(C(=O)O)CCC3)c(F)c2)c1 [Example 1, 2-((3-Fluoro-3′-(methoxy-d3)-[1,1′-biphenyl]-4-yl)carbamoyl)cyclopent-1-ene-1-carboxylic Acid]
[2]; both
  microsomal CLint: 0.96 µL/min/mg
[2]; female
  microsomal CLint: 5.02 µL/min/mg
[2]; male
  microsomal CLint: 7.69 µL/min/mg
[3]; female
  AUC: 5740 ng·h/mL
  Cmax: 3440 ng/mL
  half-life: 1.6 h
[3]; male
  AUC: 5110 ng·h/mL
  Cmax: 4110 ng/mL
  half-life: 1.7 h
[4]
  microsomal CLint: 13.4 µL/min/mg
[5]; female, iv, 1 mg/kg
  % AUCextra: 13%
  AUC(0-inf): 80700 ng·h/mL
  AUC(0-t): 66200 ng·h/mL
  C0: 7010 ng/mL
  Cz: 943 ng/mL
  Vz/f: 0.017 L/kg
  t1/2z: 9.9 h
  tz: 24 h
[5]; female, po
  bioavailability: 75.3%
[5]; female, po, 5 mg/kg
  % AUCextra: 17%
  AUC(0-inf): 291000 ng·h/mL
  AUC(0-t): 249000 ng·h/mL
  CL/F: 3.77 mL/min/kg
  Cmax: 19700 ng/mL
  Cz: 3536 ng/mL
  Tmax: 2 h
  Vd/F: 0.016 L/kg
  t1/2z: 9.1 h
  tz: 24 h
[5]; male, iv, 1 mg/kg
  % AUCextra: 22%
  AUC(0-inf): 47900 ng·h/mL
  AUC(0-t): 42600 ng·h/mL
  C0: 5540 ng/mL
  Cz: 437 ng/mL
  Vz/f: 0.01 L/kg
  t1/2z: 7.9 h
  tz: 24 h
[5]; male, po
  bioavailability: 86%
[5]; male, po, 5 mg/kg
  % AUCextra: 24%
  AUC(0-inf): 210000 ng·h/mL
  AUC(0-t): 183000 ng·h/mL
  CL/F: 3.82 mL/min/kg
  Cmax: 14600 ng/mL
  Cz: 1525 ng/mL
  Tmax: 2 h
  Vd/F: 0.008 L/kg
  t1/2z: 6.6 h
  tz: 24 h

## [2H]c1cc([2H])c(-c2ccc(NC(=O)C3=C(C(=O)O)CCC3)c(F)c2)c([2H])c1OC([2H])([2H])[2H] [Example 2, 2-((3-Fluoro-3′-(methoxy-d3)-[1,1′-biphenyl]-4-yl-2′,4′,6′-d3)carbamoyl)cyclopent-1-ene-1-carboxylic Acid]
[2]; both
  microsomal CLint: 0.74 µL/min/mg
[2]; female
  microsomal CLint: 5.8 µL/min/mg
[2]; male
  microsomal CLint: 7.67 µL/min/mg
[5]; female, iv, 1 mg/kg
  % AUCextra: 13%
  AUC(0-inf): 79100 ng·h/mL
  AUC(0-t): 64700 ng·h/mL
  C0: 7980 ng/mL
  Cz: 915 ng/mL
  Vz/f: 0.017 L/kg
  t1/2z: 10.0 h
  tz: 24 h
[5]; female, po
  bioavailability: 83.1%
[5]; female, po, 5 mg/kg
  % AUCextra: 16%
  AUC(0-inf): 320000 ng·h/mL
  AUC(0-t): 269000 ng·h/mL
  CL/F: 3.5 mL/min/kg
  Cmax: 21300 ng/mL
  Cz: 3892 ng/mL
  Tmax: 2 h
  Vd/F: 0.017 L/kg
  t1/2z: 9.3 h
  tz: 24 h
[5]; male, iv, 1 mg/kg
  % AUCextra: 23%
  AUC(0-inf): 45200 ng·h/mL
  AUC(0-t): 40400 ng·h/mL
  C0: 5310 ng/mL
  Cz: 422 ng/mL
  Vz/f: 0.01 L/kg
  t1/2z: 7.6 h
  tz: 24 h
[5]; male, po
  bioavailability: 100%
[5]; male, po, 5 mg/kg
  % AUCextra: 22%
  AUC(0-inf): 233000 ng·h/mL
  AUC(0-t): 202000 ng·h/mL
  CL/F: 3.43 mL/min/kg
  Cmax: 16000 ng/mL
  Cz: 1657 ng/mL
  Tmax: 2 h
  Vd/F: 0.008 L/kg
  t1/2z: 6.6 h
  tz: 24 h

## [2H]c1cc([2H])c(-c2c(F)c(F)c(NC(=O)C3=C(C(=O)O)CCC3)c(F)c2F)c([2H])c1OC(F)(F)F [Example 3, 2-((2,3,5,6-Tetrafluoro-3′-(trifluoromethoxy)-[1,1′-biphenyl]-4-yl-2′,4′,6′-d3)carbamoyl)cyclopent-1-ene-1-carboxylic Acid]
[1]
  EC50: < 10 µM

## [2H]c1cc([2H])c(-c2ccc(NC(=O)C3=C(C(=O)O)CCC3)c(F)c2)c([2H])c1O [Example 8, 2-((3-Fluoro-3′-hydroxy-[1,1′-biphenyl]-4-yl-2′,4′,6′-d3)carbamoyl)cyclopent-1-ene-1-carboxylic Acid]
[1]
  EC50: 25 to 50 µM

## [2H]C([2H])([2H])Oc1cccc(-c2cc(F)c(NC(=O)C3=C(C(=O)O)CCC3)c(F)c2)c1 [Example 9, 2-((3,5-Difluoro-3′-(methoxy-d3)-[1,1′-biphenyl]-4-yl)carbamoyl)cyclopent-1-ene-1-carboxylic Acid]
[6]
  antiviral effect on SARS-CoV-2 in combination with nucleoside analogue EIDD-1931: synergistic antiviral effects
[1]
  EC50: 10 to 25 µM

## [2H]C([2H])([2H])Oc1cccc(-c2cc(F)c(NC(=O)C3=C(C(=O)O)CSC3)c(F)c2)c1 [Example 10, 4-((3,5-Difluoro-3′-(methoxy-d3)-[1,1′-biphenyl]-4-yl)carbamoyl)-2,5-dihydro-thiophene-3-carboxylic Acid]
[1]
  EC50: 10 to 25 µM

## [2H]C([2H])([2H])Oc1cccc(-c2cc(F)c(NC(=O)C3=C(C(=O)O)COC3)c(F)c2)c1 [Example 11, 4-((3,5-Difluoro-3′-(methoxy-d3)-[1,1′-biphenyl]-4-yl)carbamoyl)-2,5-dihydrofuran-3-carboxylic Acid]
[1]
  EC50: > 50 µM

## [2H]C([2H])([2H])Oc1cccc(-c2cnc(NC(=O)C3=C(C(=O)O)CCC3)c(F)c2)c1 [Example 12, 2-((3-Fluoro-5-(3-(methoxy-d3)phenyl)pyridin-2-yl)carbamoyl)cyclopent-1-ene-1-carboxylic Acid]
[1]
  EC50: < 10 µM

## [2H]C([2H])([2H])Oc1cccc(-c2ccc(NC(=O)C3=C(C(=O)O)CCC3)c3c2CCC3)c1 [Example 12/1]
[1]
  EC50: < 10 µM

## COc1cccc(-c2ccc(NC(=O)C3=C(C(=O)O)CCC3)c(F)c2)c1 [Example C26, vidofludimus, reference compound]
[2]; both
  microsomal CLint: 2.27 µL/min/mg
[2]; female
  microsomal CLint: 6.58 µL/min/mg
[2]; male
  microsomal CLint: 12.6 µL/min/mg
[3]; female
  AUC: 1970 ng·h/mL
  Cmax: 745 ng/mL
  half-life: 1.7 h
[3]; male
  AUC: 1620 ng·h/mL
  Cmax: 789 ng/mL
  half-life: 1.7 h
[4]
  microsomal CLint: 8.48 µL/min/mg
[5]; female, iv, 1 mg/kg
  % AUCextra: 12%
  AUC(0-inf): 82900 ng·h/mL
  AUC(0-t): 68600 ng·h/mL
  C0: 8130 ng/mL
  Cz: 939 ng/mL
  Vz/f: 0.016 L/kg
  t1/2z: 9.7 h
  tz: 24 h
[5]; female, po
  bioavailability: 73.8%
[5]; female, po, 5 mg/kg
  % AUCextra: 17%
  AUC(0-inf): 297000 ng·h/mL
  AUC(0-t): 253000 ng·h/mL
  CL/F: 3.7 mL/min/kg
  Cmax: 21300 ng/mL
  Cz: 3620 ng/mL
  Tmax: 2 h
  Vd/F: 0.016 L/kg
  t1/2z: 9.1 h
  tz: 24 h
[5]; male, iv, 1 mg/kg
  % AUCextra: 22%
  AUC(0-inf): 47900 ng·h/mL
  AUC(0-t): 43200 ng·h/mL
  C0: 5790 ng/mL
  Cz: 421 ng/mL
  Vz/f: 0.009 L/kg
  t1/2z: 7.3 h
  tz: 24 h
[5]; male, po
  bioavailability: 92.7%
[5]; male, po, 5 mg/kg
  % AUCextra: 25%
  AUC(0-inf): 206000 ng·h/mL
  AUC(0-t): 200000 ng·h/mL
  CL/F: 3.72 mL/min/kg
  Cmax: 14900 ng/mL
  Cz: 1540 ng/mL
  Tmax: 2 h
  Vd/F: 0.007 L/kg
  t1/2z: 6.4 h
  tz: 24 h
